According to publication PMC10824666 (Nature Cancer, 2023):
Read-outs that look alike come from different tables or passages of the source. Values belong to the compound of their own block, whether it stands above or below them.

Tests used:
PKD2 = molecular target: T1, PKD2 (Homo sapiens, UniProt Q9BZL6); assay: biochemical; set-up: Eurofins DiscoverX kinase panel, competitive binding assay at 1 uM, percent of DMSO control; conditions: competitive binding, percent of DMSO control
T1 construct: gene PRKD2
T1 sequence (Q9BZL6 1-878): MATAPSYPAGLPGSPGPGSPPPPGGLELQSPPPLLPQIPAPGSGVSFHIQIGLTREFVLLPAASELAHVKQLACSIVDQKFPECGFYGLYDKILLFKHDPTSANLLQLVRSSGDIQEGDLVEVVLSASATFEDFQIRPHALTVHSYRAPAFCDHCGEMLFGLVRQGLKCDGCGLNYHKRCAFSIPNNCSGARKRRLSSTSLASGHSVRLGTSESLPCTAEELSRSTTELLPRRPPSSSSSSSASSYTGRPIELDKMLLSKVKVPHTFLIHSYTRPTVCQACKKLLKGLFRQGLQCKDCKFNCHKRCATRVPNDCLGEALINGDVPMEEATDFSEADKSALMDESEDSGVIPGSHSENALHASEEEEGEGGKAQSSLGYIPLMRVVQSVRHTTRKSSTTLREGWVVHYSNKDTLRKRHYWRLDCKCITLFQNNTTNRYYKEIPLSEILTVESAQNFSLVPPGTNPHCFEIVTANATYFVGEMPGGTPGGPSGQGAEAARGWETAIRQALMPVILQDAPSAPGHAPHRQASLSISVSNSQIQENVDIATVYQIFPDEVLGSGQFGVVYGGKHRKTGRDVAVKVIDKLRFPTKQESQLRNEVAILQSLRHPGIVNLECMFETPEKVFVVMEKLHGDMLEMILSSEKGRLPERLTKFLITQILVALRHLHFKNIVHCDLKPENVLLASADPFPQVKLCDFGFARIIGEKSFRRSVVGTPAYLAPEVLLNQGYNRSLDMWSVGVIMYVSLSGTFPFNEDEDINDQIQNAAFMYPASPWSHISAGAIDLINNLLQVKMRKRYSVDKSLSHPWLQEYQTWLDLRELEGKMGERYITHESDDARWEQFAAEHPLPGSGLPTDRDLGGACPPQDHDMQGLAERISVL
Experimental: (§1) Extended Data Fig. 3 In vitro characterization of potent and selective KIF18A inhibitors. a, KIF18A compounds (1 µM) were assessed across a panel of kinases (n = 96) by a competitive binding assay. Graph presented as percentage of control (POC); dashed line indicates POC value of 30 (n = 1 experiment). b, Tubulin polymerization analysis. Profile of KIF18A compounds (10 µM) relative to DMSO, paclitaxel (5 µM, tubulin stabilizer), or nocodazole (5 µM, tubulin destabilizer). Graphs presented as tubulin fluorescence signal at 440 nm expressed as arbitrary units (a.u.) versus time (min) with area-under-the-curve (AUC) values (n = 1 or 3 independent experiments). c, Mitotic spindle image analysis. […] Representative images were captured with x40 objective (scale bar = 10 µm) (n = 1 experiment). d-f, KIF18A compound effects on HeLa cells. d, Cells were treated for 96 h with DMSO or KIF18A compounds at the indicated concentrations. KIF18A compound concentration-response profiles presented as count relative to the percentage of DMSO control (POC) with count EC50 values (n = 2 independent experiments in duplicate). e, KIF18A protein localization in cells after treatment for 6 hours with DMSO or AM-1882 (0.05 µM). Cells stained to detect DNA, KIF18A, and centrin-3. Representative images of mitotic cells (n = 3 per group) were captured with x60 objective (scale bar = 5 µm) and graphs of line scan measurements were obtained for DNA, KIF18A, and centrin-3 channels expressed as fluorescence intensity (a.u.) versus distance (µm) (n = 1 experiment). f, Mitotic cell fate imaging analysis. HeLa Kyoto cells co-expressing α-tubulin-EGFP and H2B-mCherry proteins released from a G1S block in media containing DMSO or AM-1882 (0.2 µM). Analysis was performed on cells entering the first mitosis (n = 40 cells per group). Graph presented as time in mitosis (h) versus mitotic cell fate, either complete cell division (CCD) or death in mitosis (DiM). Classified cells exiting mitosis by the number of daughter cells and cell death in […] We screened a small-molecule library of diverse compounds for selective inhibitors of KIF18A MT-ATPase motor activity. Two compound hits were discovered that phenocopied the effects of KIF18A KD in cells; these hits are structurally distinct from the KIF18A inhibitor BTB-1 (refs. [27],[28]). […] However, the potency of the KIF18A inhibitors was unaffected by varying ATP and MT concentrations (Extended Data Fig. 2d). This supports our proposed model in which KIF18A inhibitors occupy an allosteric pocket formed by motor helices α4 and α6 close to the motor MT-binding surface. To screen for potential off-target interactions with essential mitotic kinases, three of the KIF18A compounds were profiled against a large panel of kinases. […] We next investigated whether our KIF18A inhibitors affected tubulin polymerization in vitro in the absence of the KIF18A motor. All four KIF18A compounds had tubulin-polymerization profiles similar to that of the DMSO control and distinct from those of the paclitaxel (MT stabilizer) and nocodazole (MT destabilizer) co

Stk33 = Stk33 (Homo sapiens, UniProt Q9BYT3); assay: biochemical; set-up: Eurofins DiscoverX kinase panel, competitive binding assay at 1 uM, percent of DMSO control; conditions: competitive binding, percent of DMSO control
Experimental: as §1

[1] = read-out: Kinome Profiling performed by Eurofins DiscoverX / AM-1882, 1.0 µM / POC
[2] = read-out: Kinome Profiling performed by Eurofins DiscoverX / AM-5308, 1.0 µM / POC
[3] = read-out: Kinome Profiling performed by Eurofins DiscoverX / AM-0277, 1.0 µM / POC

Sequence of Stk33 (Q9BYT3 whole entry): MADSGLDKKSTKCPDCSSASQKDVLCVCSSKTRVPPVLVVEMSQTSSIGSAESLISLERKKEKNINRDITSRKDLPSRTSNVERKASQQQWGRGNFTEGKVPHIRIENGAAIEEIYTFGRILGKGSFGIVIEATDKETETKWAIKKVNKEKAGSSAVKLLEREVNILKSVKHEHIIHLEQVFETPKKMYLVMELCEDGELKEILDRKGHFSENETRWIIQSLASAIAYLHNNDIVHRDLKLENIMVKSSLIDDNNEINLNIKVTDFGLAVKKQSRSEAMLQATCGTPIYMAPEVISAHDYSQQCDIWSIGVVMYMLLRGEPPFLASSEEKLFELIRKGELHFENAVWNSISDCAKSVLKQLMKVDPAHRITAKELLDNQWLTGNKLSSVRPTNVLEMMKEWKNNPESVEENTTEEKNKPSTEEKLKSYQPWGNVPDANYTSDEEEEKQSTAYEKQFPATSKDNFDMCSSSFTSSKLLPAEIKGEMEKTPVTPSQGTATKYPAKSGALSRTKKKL

- remaining activity at 1 µM (PKD2; [1]): 64.5%
- remaining activity at 1 µM (Stk33; [1]): 98%
SMILES: CC(C)(C)NS(=O)(=O)c1cccc(NC(=O)c2ccc(S(=O)(=O)NC(C)(C)C)cc2N2CCC3(CC2)CC3)c1 [AM-1882]

- remaining activity at 1 µM (PKD2; [2]): 100%
- remaining activity at 1 µM (Stk33; [2]): 89%
SMILES: C[C@@H]1CN(c2cccc(NC(=O)c3ccc(NS(=O)(=O)CCO)cc3N3CCC4(CC3)CC4)n2)CCO1 [AM-5308]

- remaining activity at 1 µM (PKD2; [3]): 100%
- remaining activity at 1 µM (Stk33; [3]): 86%
SMILES: CC(C)(CO)Nc1ccc(C(=O)Nc2cccc(S(=O)(=O)C3CCCC3)c2)c(N2CCC3(CC2)CC3)n1 [AM-0277]
